From patent publication US20150050388A1, “SYNBIOTIC FOOD COMPOSITION CONTAINING TAGATOSE AND PROBIOTIC LACTIC ACID BACTERIA” (CJ CHEILJEDANG CORPORATION, priority 2012, published 2015)

Columns and labels:
[1] = system: lactic acid bacteria strains efficiently using tagatose; assay: Growth curves of lactic acid bacteria on other prebiotics (Example 3); format: cell-based; details: 9 strains, 37° C., live cell count at 0, 5, 10, 24 and 48 hours
Description: Capacity of using other prebiotics except for tagatose was evaluated, compared and analyzed using 9 strains having excellent capacity of using tagatose among the 19 strains identified in Example 2.
For the present evaluation, at the time of preparing the medium used in Example 1, as a positive control group, glucose was used except for tagatose, and as negative control groups, fructooligosaccharide, lactitol, lactulose, and xylitol were used.
Each of the Lactobacillus casei (FIG. 1), Lactobacillus casei Shirota (FIG. 2), Lactobacillus casei DN114001 (FIG. 3), Lactobacillus casei-01® (FIG. 4), Lactobacillus rhamnosus (FIG. 5), Lactobacillus rhamnosus GG (FIG. 6), Pediococcus pentosaceus (FIG. 7), Lactobacillus farciminis (FIG. 8), and Lactobacillus acidophilus (FIG. 9) that were identified in Example 2 was inoculated in each of the media and cultured at 37° C. for 0, 5, 10, 24, and 48 hours. Then, a live cell count thereof was measured, such that a growth curve of each of the strains was obtained.

L. acidophilus = assay: Capacity of using tagatose: live cell count after culture in minimal medium with added sugar; format: cell-based, Lactobacillus acidophilus; details: strain 19 (L. acidophilus)
Description: (§1) Pure culture solutions (1% culture solution in a stationary-phase in which a cell count of each of the strains is about 10^8 to 10^9 cfu/ml) of a total of 385 lactic acid bacteria strains were inoculated in selective media, respectively, and cultured in an incubator at 37° C. for 18 hours, followed by sub-culturing three times. Then, experiments proceeded at a state in which viability of the strain was optimal.
(§2) In order to evaluate the capacity of using tagatose of each of the lactic acid bacteria, a minimal medium composed of 5 g of peptone, 2.5 g of sodium acetate trihydrate, 0.5 ml of magnesium sulfate heptahydrate, 0.5 ml of manganese sulfate tetrahydrate, 5 ml of Tween 80, 1 g of diammonium citrate, 1 g of dipotassium phosphate, and 480 ml of distilled water was used. […]
(§3) 1% of each of the lactic acid bacteria strains cultured as described above was inoculated in the prepared medium and cultured in an incubator at 37° C. for 24 hours. Thereafter, absorbance of each of the cultured strains was measured using an ELISA reader, and a cell count was measured through plate culture using a dilution solution, thereby evaluating the capacity of using tagatose.

L. casei Shirota = assay: as above; format: cell-based, Lactobacillus casei
Description: as §1
(§4) In order to evaluate the capacity of using tagatose of each of the lactic acid bacteria, a minimal medium composed of 5 g of peptone, 2.5 g of sodium acetate trihydrate, 0.5 ml of magnesium sulfate heptahydrate, 0.5 ml of manganese sulfate tetrahydrate, 5 ml of Tween 80, 1 g of diammonium citrate, 1 g of dipotassium phosphate, and 480 ml of distilled water was used.
(§5) After the medium was sterilized at 121° C. for 15 minutes and divided into three samples, 20 ml of 50% tagatose solution, 20 ml of 50% glucose solution, and 20 ml of 50% fructooligosaccharide solution (FOS) were added to each of the three samples, thereby preparing liquid media.
as §3

L. casei-01® = assay: as above; format: cell-based, Lactobacillus casei
Description: as §1, §4, §5, §3

L. casei = assay: as above; format: cell-based, Lactobacillus casei; details: for Log10 Value of Live Cell Count: 24h, 37° C., minimal medium with the named sugar; for Tagatose/Glucose: ratio of 24h log10 live cell counts
Description: as §1, §4, §5, §3

L. casei DN114001 = assay: as above; format: cell-based, Lactobacillus casei
Description: as §1, §4, §5, §3

L. rhamnosus = assay: as above; format: cell-based, Lactobacillus rhamnosus; details: for Log10 Value of Live Cell Count: 24h, 37° C., minimal medium with the named sugar; for Tagatose/Glucose: ratio of 24h log10 live cell counts
Description: as §1, §4, §5, §3

L. rhamnosus GG = assay: as above; format: cell-based, Lactobacillus rhamnosus; details: for Log10 Value of Live Cell Count: 24h, 37° C., minimal medium with the named sugar; for Tagatose/Glucose: ratio of 24h log10 live cell counts
Description: as §1, §4, §5, §3

L. farciminis = assay: as above; format: cell-based, Lactobacillus farciminis; details: strain 18 (L. farciminis)
Description: as §1, §2, §3

P. pentosaceus = assay: as above; format: cell-based, Pediococcus pentosaceus; details: for Log10 Value of Live Cell Count: 24h, 37° C., minimal medium with the named sugar; for Tagatose/Glucose: ratio of 24h log10 live cell counts
Description: as §1, §4, §5, §3

[2] = 24h, 37° C., minimal medium with the named sugar
[3] = ratio of 24h log10 live cell counts

OC[C@@H](O)[C@@H](O[C@@H]1O[C@H](CO)[C@H](O)[C@H](O)[C@H]1O)[C@H](O)[C@@H](O)CO [lactitol]
capacity of using the sugar (comparison of growth curves) [1]: low

O=C(CO)[C@@H](O)[C@@H](O)[C@H](O)CO [Tagatose, tagatose]
Log10 Value of Live Cell Count (L. acidophilus; [2]): 7.913 | Tagatose/Glucose (L. acidophilus; [3]): 98.4% | capacity of using tagatose (L. casei Shirota; L. casei Shirota, as compared to the other strains of Table 1): significantly excellent capacity of using tagatose | Log10 Value of Live Cell Count (L. casei Shirota; strain 7 (L. casei Shirota), 24h, 37° C., minimal medium with the named sugar): 9.054 | Tagatose/Glucose (L. casei Shirota; strain 7 (L. casei Shirota), ratio of 24h log10 live cell counts): 101.4% | capacity of using tagatose (L. casei-01®; L. casei-01, as compared to the other strains of Table 1): significantly excellent capacity of using tagatose | Log10 Value of Live Cell Count (L. casei-01®; strain 9 (L. casei-01®), 24h, 37° C., minimal medium with the named sugar): 9.068 | Tagatose/Glucose (L. casei-01®; strain 9 (L. casei-01®), ratio of 24h log10 live cell counts): 101.4% | Log10 Value of Live Cell Count (L. casei; strain 1 (L. casei)): 7.882 | Tagatose/Glucose (L. casei; strain 1 (L. casei)): 100.3% | Log10 Value of Live Cell Count (L. casei; strain 2 (L. casei)): 8.137 | Tagatose/Glucose (L. casei; strain 2 (L. casei)): 100.1% | Log10 Value of Live Cell Count (L. casei; strain 3 (L. casei)): 8.240 | Tagatose/Glucose (L. casei; strain 3 (L. casei)): 99.6% | Log10 Value of Live Cell Count (L. casei; strain 4 (L. casei)): 8.424 | Tagatose/Glucose (L. casei; strain 4 (L. casei)): 99.0% | Log10 Value of Live Cell Count (L. casei; strain 5 (L. casei)): 8.449 | Tagatose/Glucose (L. casei; strain 5 (L. casei)): 93.1% | Log10 Value of Live Cell Count (L. casei; strain 6 (L. casei)): 8.767 | Tagatose/Glucose (L. casei; strain 6 (L. casei)): 98.8% | capacity of using tagatose (L. casei DN114001; L. casei DN114001, as compared to the other strains of Table 1): significantly excellent capacity of using tagatose | Log10 Value of Live Cell Count (L. casei DN114001; strain 8 (L. casei DN114001), 24h, 37° C., minimal medium with the named sugar): 8.953 | Tagatose/Glucose (L. casei DN114001; strain 8 (L. casei DN114001), ratio of 24h log10 live cell counts): 101.7% | Log10 Value of Live Cell Count (L. rhamnosus; strain 10 (L. rhamnosus)): 7.939 | Tagatose/Glucose (L. rhamnosus; strain 10 (L. rhamnosus)): 98.5% | Log10 Value of Live Cell Count (L. rhamnosus; strain 11 (L. rhamnosus)): 8.031 | Tagatose/Glucose (L. rhamnosus; strain 11 (L. rhamnosus)): 99.2% | Log10 Value of Live Cell Count (L. rhamnosus; strain 12 (L. rhamnosus)): 8.059 | Tagatose/Glucose (L. rhamnosus; strain 12 (L. rhamnosus)): 98.5% | Log10 Value of Live Cell Count (L. rhamnosus; strain 13 (L. rhamnosus)): 8.169 | Tagatose/Glucose (L. rhamnosus; strain 13 (L. rhamnosus)): 99.5% | capacity of using tagatose (L. rhamnosus GG; L. rhamnosus GG, as compared to the other strains of Table 1): significantly excellent capacity of using tagatose | Log10 Value of Live Cell Count (L. rhamnosus GG; strain 14 (L. rhamnosus GG)): 8.548 | Tagatose/Glucose (L. rhamnosus GG; strain 14 (L. rhamnosus GG)): 105.0% | Log10 Value of Live Cell Count (L. rhamnosus GG; strain 15 (L. rhamnosus GG)): 8.822 | Tagatose/Glucose (L. rhamnosus GG; strain 15 (L. rhamnosus GG)): 103.5% | Log10 Value of Live Cell Count (L. farciminis; [2]): 8.601 | Tagatose/Glucose (L. farciminis; [3]): 99.2% | Log10 Value of Live Cell Count (P. pentosaceus; strain 16 (P. pentosaceus)): 8.798 | Tagatose/Glucose (P. pentosaceus; strain 16 (P. pentosaceus)): 99.1% | Log10 Value of Live Cell Count (P. pentosaceus; strain 17 (P. pentosaceus)): 8.953 | Tagatose/Glucose (P. pentosaceus; strain 17 (P. pentosaceus)): 98.8%
